Common to all, as to parameters: key: injury rating scale on which 4 = death
For test [1], the system named is Corn. Description: Preemergent injury rating, corn. The format is in vivo. How it is done: (§1) Various of the compounds to be employed as active agent in accordance with the present invention were evaluated for preemergent application to various species of plants. In this evaluation, a soil was prepared consisting of one part masonry sand and one part shredded top soil blended together in a cement mixer. One gallon of this soil was placed in a 25 × 35 cm. galvanized flat and was patted down with a bench brush until level. A three-row marker was used to make 21/2 cm. deep furrows in approximately two-fifths of the flat. Crop seeds consisting of four kernels of corn, five cotton seeds and five soybean seeds were placed in these furrows. A four-row template was then placed on the remaining soil and the indicated approximate numbers of each of the following seeds were planted, one species to each section: foxtail (millet), 80-100 seeds; velvetleaf (40-50 seeds); rough pigweed (150-250 seeds); and large crabgrass (100-150 seeds).
(§2) Sufficient soil was added to cover the entire flat. Thus, the weed seeds were covered to a depth of about 6 mm. and the crop seeds were covered to a depth of about 3 cm.
(§3) In assaying the effect of the composition as preemergent herbicides, a flat prepared as above, taken either on the day of planting or on the next day, was placed in a chamber equipped with a turntable and an air exhaust. The herbicidal composition, either a spray-type emulsion or a wettable powder, was applied to the flat with a modified DeVilbiss atomizer hooked to an air source. Twelve and one-half milliliters of the composition under test were applied to each flat either on the day of planting or the succeeding day. Injury ratings and observations as to type of injury were made eleven to twelve days after treatment. The injury rating scale used was as follows:
(§4) 4--death When more than one determination was carried out at a given rate, an average value was calculated for the injury rating. Each compound evaluated was formulated as a spray by one of the following procedures. In one method the particular compound was wetted by grinding in a mortar with one part of polyoxyethylene sorbitan monolaurate. Five hundred parts of water were added slowly to the resultant creamy paste to give an aqueous dispersion with a surfactant concentration of 0.2 percent. This dispersion was entirely satisfactory for spray application. In a second procedure the compound was dissolved in one volume of acetone, and the acetone solution was diluted with nineteen volumes of water containing 0.1 percent of polyoxyethylene sorbitan monolaurate.
(§5) In the following table setting forth the results of the evaluation, column 1 gives the name of the compound under test; column 2, the rate in pounds per acre at which the compound was applied to the test flat; and the remaining columns, the injury to the particular plant seeds or seedlings as measured by the foregoing scale.

Test [2] has as its system Crabgrass. Description: Preemergent injury rating, crabgrass. In kind it is in vivo, large crabgrass. As to the method: as §1, §2, §3, §4, §5
In test [3] the test system is Foxtail. Description: Preemergent injury rating, foxtail. In kind it is in vivo, foxtail (millet). How it is done:
as §1, §2, §3, §4, §5

For test [4], the system named is Velvet Leaf. Description: Preemergent injury rating, velvetleaf. In kind it is in vivo. How it is done: as §1, §2, §3, §4, §5
Test [5] concerns Soybean. Description: Preemergent injury rating, soybean. In kind it is in vivo. As to the method: as §1, §2, §3, §4, §5
For test [6], the system named is Pigweed. Description: Preemergent injury rating, pigweed. In kind it is in vivo, rough pigweed. As to the method:
as §1, §2, §3, §4, §5

Test [7] has as its system Cotton. Description: Preemergent injury rating, cotton. The format is in vivo. As to the method: as §1, §2, §3, §4, §5

Structures are written as SMILES.

On to `On1c(C(F)(F)C(F)F)nc2nc(Cl)c(Cl)cc21` [1-hydroxy-5,6-dichloro-2-(1,1,2,2-tetrafluoroethyl)-1H-imidazo(4,5-b)pyridine], for which the “Injury Rating, Corn” value in test [1] (1 lbs/acre), in test [1] (2 lbs/acre), in test [1] (4 lbs/acre) and in test [1] (8 lbs/acre) was 0 throughout. Moreover, the “Injury Rating, Crabgrass” value in test [2] (1 lbs/acre) amounted to 0; in test [2] (2 lbs/acre), 1BS; in test [2] (4 lbs/acre), 2BS; in test [2] (8 lbs/acre), 2B. Further, the “Injury Rating, Foxtail” value in test [3] (1 lbs/acre) is recorded as 0; in test [3] (2 lbs/acre) it was 0; in test [3] (4 lbs/acre) it was 1BS; in test [3] (8 lbs/acre) it was 1S. Further, the “Injury Rating, Velvet Leaf” value was determined as 0 in test [4] (1 lbs/acre), 1B in test [4] (2 lbs/acre), 1B in test [4] (4 lbs/acre) and 3B in test [4] (8 lbs/acre). Further, the “Injury Rating, Soybean” value came out at 0 in test [5] (1 lbs/acre), 0 in test [5] (2 lbs/acre) and 1B in test [5] (4 lbs/acre). Moreover, the “Injury Rating, Pigweed” value in test [6] (1 lbs/acre) is on record as 1S; in test [6] (2 lbs/acre), 3BS; in test [6] (4 lbs/acre), 3BS; in test [6] (8 lbs/acre), 3BS. Further, the “Injury Rating, Cotton” value in test [7] (1 lbs/acre), in test [7] (2 lbs/acre) and in test [7] (4 lbs/acre) was 0 in each case.

Turning to `On1c(C(F)(F)F)nc2nc(Cl)ccc21` [5-chloro-1-hydroxy-2-(trifluoromethyl)-1H-imidazo(4,5-b)pyridine], the “Injury Rating, Corn” value amounted to 0 in test [1] (2 lbs/acre) and 1 in test [1] (8 lbs/acre). In addition, the “Injury Rating, Crabgrass” value in test [2] (2 lbs/acre) and in test [2] (8 lbs/acre) was 3 throughout. In addition, the “Injury Rating, Foxtail” value in test [3] (2 lbs/acre) is 2; in test [3] (8 lbs/acre), 4. In test [5] (2 lbs/acre), the “Injury Rating, Soybean” value was 0. Further, the “Injury Rating, Pigweed” value in test [6] (2 lbs/acre) and in test [6] (8 lbs/acre) was 3 each time. Further, the “Injury Rating, Cotton” value in test [7] (2 lbs/acre) is 0.

These data come from patent US4087432A, “1H-imidazo(4,5-b)pyridine compounds” (Eli Lilly and Company, priority 1975, dated 1978).
